# From patent US20250388565A1, “ESTROGEN RECEPTOR ALPHA DEGRADERS AND METHODS OF USE THEREOF” (Relay Therapeutics, Inc., priority 2022, published 2025)
# Target: T1, ERα protein (HiBiT-tagged) in ESR1_HiBiT KI MCF7 cells (Homo sapiens, UniProt P03372)
# T1 sequence (P03372 1-595): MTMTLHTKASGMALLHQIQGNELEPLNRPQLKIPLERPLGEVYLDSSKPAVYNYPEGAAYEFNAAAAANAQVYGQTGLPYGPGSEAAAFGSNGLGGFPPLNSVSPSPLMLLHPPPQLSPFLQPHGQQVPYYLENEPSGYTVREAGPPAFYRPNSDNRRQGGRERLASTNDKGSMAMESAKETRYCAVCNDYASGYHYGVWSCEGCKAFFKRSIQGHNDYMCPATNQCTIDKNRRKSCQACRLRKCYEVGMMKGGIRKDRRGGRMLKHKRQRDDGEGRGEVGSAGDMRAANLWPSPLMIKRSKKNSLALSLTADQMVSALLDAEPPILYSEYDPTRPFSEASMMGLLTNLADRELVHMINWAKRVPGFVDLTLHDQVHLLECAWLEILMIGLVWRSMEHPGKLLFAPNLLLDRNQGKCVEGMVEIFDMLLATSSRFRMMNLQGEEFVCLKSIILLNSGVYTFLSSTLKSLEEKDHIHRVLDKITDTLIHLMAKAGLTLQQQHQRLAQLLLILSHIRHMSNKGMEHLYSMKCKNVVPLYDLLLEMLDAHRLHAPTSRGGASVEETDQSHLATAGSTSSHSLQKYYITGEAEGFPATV
# Test: Nano Glo HiBiT Lytic Degradation Assay
# Type: cell-based
# Details: 6 hours with compound, 14-point dose response 1:3, bell-shape curve fit, half-maximal effect of first Hill model, read-out: MCF7 ESR1 HiBiT - (DC50)
# In short: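 ESR1_HiBiT knock-in MCF7 cells were seeded 24 h before treatment, then exposed to compounds for 6 h at 37° C (14-point 1:3 curves, 10 mM top stock, 0.1% DMSO final, duplicates). HiBiT-ERα was read by lytic LgBiT luminescence, background-subtracted and normalized to DMSO. DC50 was taken from the half-maximal point of the first Hill component of a bell-shaped fit.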
row,Structure (SMILES),DC50 [nM]
1,O=C1CCC(N2Cc3cc(N4CCN(CC5CCN(c6ccc([C@@H]7c8ccc(O)cc8CC[C@@H]7c7ccc(F)cc7)cc6)CC5)CC4)ccc3C2=O)C(=O)N1 (stereo partly shown) [II-109],1.05
2,"CC(C)[C@@H]1CCc2cc(O)ccc2[C@@H]1c1ccc(N2CCC(CN3CCN(c4ccc5c(c4)CN(C4CCC(=O)NC4=O)C5=O)CC3)CC2)cc1 (stereo in doubt) [Compound I-129, (R)-3-(5-(4-((1-(4-((1S,2S)-6-hydroxy-2-isopropyl-1,2,3,4-tetrahydronaphthalen-1-yl)phenyl)piperidin-4-yl)methyl)piperazin-1-yl)-1-oxoisoindolin-2-yl)piperidine-2,6-dione]",5
3,"C[C@H](C1CC1)[C@H]1CC(F)(F)c2cc(O)ccc2[C@H]1c1ccc(N2CCC(CN3CCN(c4ccc5c(c4)CN([C@H]4CCC(=O)NC4=O)C5=O)CC3)CC2)cc1 (single isomer, unassigned) [Compound I-228]",15
4,"C[C@H]1C[C@H](c2ccccc2)[C@H](c2ccc(N3CCC(CN4CCN(c5ccc6c(c5)CN([C@H]5CCC(=O)NC5=O)C6=O)CC4)CC3)cc2)c2ccc(O)cc21 (single isomer, unassigned) [Compound I-420]",2
5,"O=C1CC[C@H](N2Cc3cc(N4CCN(CC5CCN(c6ccc([C@@H]7c8ccc(O)cc8CO[C@@H]7c7cccc(OC(F)(F)F)c7)cc6)CC5)CC4)ccc3C2=O)C(=O)N1 [Compound I-362, (S)-3-(5-(4-((1-(4-((3S,4R)-7-hydroxy-3-(3-(trifluoromethoxy)phenyl)isochroman-4-yl)phenyl)piperidin-4-yl)methyl)piperazin-1-yl)-1-oxoisoindolin-2-yl)piperidine-2,6-dione]",1
6,"CC(C)C[C@H]1OCc2cc(O)ccc2[C@H]1c1ccc(N2CCC(CN3CCN(c4ccc5c(c4)CN([C@H]4CCC(=O)NC4=O)C5=O)CC3)CC2)cc1 (single isomer, unassigned) [Compound I-224]",0.48
7,"Cc1cc(F)ccc1[C@@H]1CC(F)(F)c2cc(O)ccc2[C@@H]1c1ccc(N2CCC(CN3CCN(c4ccc5c(c4)CN([C@H]4CCC(=O)NC4=O)C5=O)CC3)CC2)cc1 [Compound I-327, (S)-3-(5-(4-((1-(4-((1S,2R)-4,4-difluoro-2-(4-fluoro-2-methylphenyl)-6-hydroxy-1,2,3,4-tetrahydronaphthalen-1-yl)phenyl)piperidin-4-yl)methyl)piperazin-1-yl)-1-oxoisoindolin-2-yl)piperidine-2,6-dione]",≥ 10000
8,"Cc1ccc([C@@H]2CCc3cc(O)ccc3[C@@H]2c2ccc(N3CCC(CN4CCN(c5ccc6c(c5)CN([C@H]5CCC(=O)NC5=O)C6=O)CC4)CC3)cc2)cc1 (single isomer, unassigned) [II-37]",46
9,"O=C1CC[C@H](N2Cc3cc(N4CCN(CC5CCN(c6ccc([C@H]7c8ccc(O)cc8CC[C@H]7c7cccc(OC(F)(F)F)c7)cc6)CC5)CC4)ccc3C2=O)C(=O)N1 (single isomer, unassigned) [Compound I-110]",0.155
10,"O=C1CC[C@H](N2Cc3cc(N4CCN(CC5CCN(c6ccc([C@@H]7c8ccc(O)cc8C(F)(F)C[C@@H]7C7CCCC7)cc6)CC5)CC4)ccc3C2=O)C(=O)N1 [Compound I-198, (S)-3-(5-(4-((1-(4-((1R,2R)-2-cyclopentyl-4,4-difluoro-6-hydroxy-1,2,3,4-tetrahydronaphthalen-1-yl)phenyl)piperidin-4-yl)methyl)piperazin-1-yl)-1-oxoisoindolin-2-yl)piperidine-2,6-dione]",0.93
11,O=C1CC[C@H](N2Cc3cc(N4CCN(CC5CCN(c6cc(F)c([C@H]7c8ccc(O)cc8CC[C@H]7c7ccccc7)c(F)c6)CC5)CC4)ccc3C2=O)C(=O)N1 [II-103],≥ 10000
12,"O=C1CCN(c2ccc(N3CC[C@@]4(CCN(CC5CCN(c6ccc([C@@H]7c8ccc(O)cc8CC[C@@H]7c7ccccc7)cc6)CC5)C4)C3)cc2)C(=O)N1 (single isomer, unassigned) [Compound I-288]",≥ 10000
13,"O=C1CCC(c2ccc(N3CCN(CC4CCN(c5ccc([C@@H]6c7ccc(O)cc7CC[C@@H]6c6ccccc6)cc5)CC4)CC3)cc2)C(=O)N1 (stereo partly drawn) [Compound I-39, 3-[4-[4-[[1-[4-[(1R,2S)-6-hydroxy-2-phenyl-tetralin-1-yl]phenyl]-4-piperidyl]methyl]piperazin-1-yl]phenyl]piperidine-2,6-dione]",469
14,"O=C1CC[C@H](N2Cc3cc(N4CCN(CC5CCN(c6ccc([C@@H]7c8ccc(O)cc8C(F)(F)C[C@@H]7c7ccccc7)c(F)c6)CC5)CC4)ccc3C2=O)C(=O)N1 [Compound I-199, (S)-3-(5-(4-((1-(4-((1S,2S)-4,4-difluoro-6-hydroxy-2-phenyl-1,2,3,4-tetrahydronaphthalen-1-yl)-3-fluorophenyl)piperidin-4-yl)methyl)piperazin-1-yl)-1-oxoisoindolin-2-yl)piperidine-2,6-dione]",0.33
15,[2H]c1cc2c(c([2H])c1O)C([2H])C[C@H](c1ccccc1)[C@@H]2c1ccc(N2CCC(CN3CCN(c4ccc5c(c4)CN([C@H]4CCC(=O)NC4=O)C5=O)CC3)CC2)cn1 (stereo partly shown) [Compound I-339],0.31
16,"C[C@H]1CCc2cc(O)ccc2[C@H]1c1ccc(N2CCC(CN3CCN(c4ccc5c(c4)CN([C@H]4CCC(=O)NC4=O)C5=O)CC3)CC2)cc1 [Compound I-124, (S)-3-(5-(4-((1-(4-((1R,2S)-6-hydroxy-2-methyl-1,2,3,4-tetrahydronaphthalen-1-yl)phenyl)piperidin-4-yl)methyl)piperazin-1-yl)-1-oxoisoindolin-2-yl)piperidine-2,6-dione]",1
17,NC(=O)CCC(C(=O)O)N1Cc2cc(N3CCN(CC4CCN(c5ccc([C@@H]6c7ccc(O)cc7CO[C@@H]6c6ccccc6)cc5)CC4)CC3)ccc2C1=O (stereo partly shown) [Compound I-400],7.75
18,"C[C@H]1CN(CC2CCN(c3ccc([C@@H]4c5ccc(O)cc5CC[C@@H]4c4ccccc4)cc3)CC2)CCN1c1ccc2c(c1)CN([C@H]1CCC(=O)NC1=O)C2=O (single isomer, unassigned) [II-10]",5
19,"Cc1ccc([C@@H]2CC(F)(F)c3cc(O)ccc3[C@@H]2c2ccc(N3CCC(CN4CCN(c5ccc6c(c5)CN(C5CCC(=O)NC5=O)C6=O)CC4)CC3)cc2)cc1 (stereo in doubt) [Compound I-321, (R)-3-(5-(4-((1-(4-((1S,2R)-4,4-difluoro-6-hydroxy-2-(p-tolyl)-1,2,3,4-tetrahydronaphthalen-1-yl)phenyl)piperidin-4-yl)methyl)piperazin-1-yl)-1-oxoisoindolin-2-yl)piperidine-2,6-dione]",0.44
20,"O=C1CC[C@H](N2Cc3cc(N4CCN(CC5CCN(c6ccc([C@@H]7c8ccc(O)cc8C(F)(F)C[C@@H]7c7ccccc7F)cc6)CC5)CC4)ccc3C2=O)C(=O)N1 [Compound I-312, (S)-3-(5-(4-((1-(4-((1R,2S)-4,4-difluoro-2-(2-fluorophenyl)-6-hydroxy-1,2,3,4-tetrahydronaphthalen-1-yl)phenyl)piperidin-4-yl)methyl)piperazin-1-yl)-1-oxoisoindolin-2-yl)piperidine-2,6-dione]",0.37
21,"O=C1CCC(c2ccc(N3CC[C@]4(CCN(CC5CCN(c6ccc([C@@H]7c8ccc(O)cc8C(F)(F)C[C@@H]7c7ccccc7)cc6)CC5)C4)C3)cc2)C(=O)N1 (single isomer, unassigned) [Compound I-281]",0.51
22,"O=C1CCC(N2Cc3cc(N4CCN(CC5CCN(c6ccc([C@H]7c8ccc(O)cc8CC[C@H]7c7cccc8c7CC8)cc6)CC5)CC4)ccc3C2=O)C(=O)N1 (single isomer, unassigned) [Compound I-101]",8
